Measurements from ChEMBL document CHEMBL5291721, “A preclinical secondary pharmacology resource illuminates target-adverse drug reaction associations of marketed drugs” (Nat Commun, 2023).

Experiments:
[1] = molecular target: T1, Muscarinic acetylcholine receptor M1 (Homo sapiens, UniProt P11229); type: functional, cell-based
T1 sequence (P11229 whole entry): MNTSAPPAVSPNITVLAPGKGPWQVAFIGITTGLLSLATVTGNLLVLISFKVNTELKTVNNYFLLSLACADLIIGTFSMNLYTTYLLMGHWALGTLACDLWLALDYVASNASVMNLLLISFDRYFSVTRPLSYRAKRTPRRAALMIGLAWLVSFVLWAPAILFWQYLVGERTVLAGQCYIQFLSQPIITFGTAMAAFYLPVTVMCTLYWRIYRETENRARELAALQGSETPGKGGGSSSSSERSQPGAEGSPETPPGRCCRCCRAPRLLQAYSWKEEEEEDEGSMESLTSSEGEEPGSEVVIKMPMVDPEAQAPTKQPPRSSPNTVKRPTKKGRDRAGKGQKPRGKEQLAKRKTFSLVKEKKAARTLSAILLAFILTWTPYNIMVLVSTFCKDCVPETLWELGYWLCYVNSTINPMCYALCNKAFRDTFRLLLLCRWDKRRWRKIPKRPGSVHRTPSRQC

[2] = molecular target: T2, Thromboxane A2 receptor (Homo sapiens, UniProt P21731); type: functional, cell-based
T2 sequence (P21731 whole entry): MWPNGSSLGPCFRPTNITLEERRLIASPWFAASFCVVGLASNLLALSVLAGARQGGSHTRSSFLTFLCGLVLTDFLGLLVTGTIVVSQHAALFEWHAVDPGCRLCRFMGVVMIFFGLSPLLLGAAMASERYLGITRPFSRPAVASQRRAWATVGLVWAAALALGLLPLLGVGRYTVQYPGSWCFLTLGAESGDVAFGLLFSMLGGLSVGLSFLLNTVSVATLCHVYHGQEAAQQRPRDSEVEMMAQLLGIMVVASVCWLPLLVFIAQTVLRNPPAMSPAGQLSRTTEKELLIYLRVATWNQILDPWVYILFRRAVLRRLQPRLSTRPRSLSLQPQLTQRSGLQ

[3] = molecular target: T3, Gastrin/cholecystokinin type B receptor (Homo sapiens, UniProt P32239)
T3 sequence (P32239 whole entry): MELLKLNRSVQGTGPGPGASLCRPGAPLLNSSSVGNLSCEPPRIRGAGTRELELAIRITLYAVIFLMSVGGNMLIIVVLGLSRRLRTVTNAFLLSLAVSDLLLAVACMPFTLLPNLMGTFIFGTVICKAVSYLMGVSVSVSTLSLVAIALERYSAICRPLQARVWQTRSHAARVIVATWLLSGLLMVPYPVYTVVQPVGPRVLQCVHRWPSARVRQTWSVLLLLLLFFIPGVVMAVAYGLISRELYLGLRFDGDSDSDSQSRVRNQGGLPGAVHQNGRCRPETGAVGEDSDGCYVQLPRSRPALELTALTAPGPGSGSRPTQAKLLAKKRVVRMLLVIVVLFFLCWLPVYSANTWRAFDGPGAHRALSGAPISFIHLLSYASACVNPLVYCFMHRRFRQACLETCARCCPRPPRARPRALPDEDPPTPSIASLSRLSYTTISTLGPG

[4] = molecular target: Mu-type opioid receptor (Homo sapiens, UniProt P35372)
[5] = molecular target: T4, Alpha-1A adrenergic receptor (Homo sapiens, UniProt P35348); type: functional, cell-based
T4 sequence (P35348 whole entry): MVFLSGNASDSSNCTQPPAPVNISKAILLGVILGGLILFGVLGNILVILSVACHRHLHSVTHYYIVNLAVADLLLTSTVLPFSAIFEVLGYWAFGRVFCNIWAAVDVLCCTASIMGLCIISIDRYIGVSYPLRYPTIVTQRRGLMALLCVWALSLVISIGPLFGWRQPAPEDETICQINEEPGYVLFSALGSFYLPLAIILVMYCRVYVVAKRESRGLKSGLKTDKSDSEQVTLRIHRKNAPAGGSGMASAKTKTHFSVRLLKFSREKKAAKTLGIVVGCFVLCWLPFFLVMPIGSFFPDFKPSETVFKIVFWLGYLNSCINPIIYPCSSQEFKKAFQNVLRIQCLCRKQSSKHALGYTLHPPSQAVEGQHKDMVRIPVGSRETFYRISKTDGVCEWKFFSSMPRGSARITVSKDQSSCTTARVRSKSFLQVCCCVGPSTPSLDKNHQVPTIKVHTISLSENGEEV

[6] = molecular target: Kappa-type opioid receptor (Homo sapiens, UniProt P41145)
[7] = molecular target: Cannabinoid receptor 1 (Homo sapiens, UniProt P21554)
[8] = molecular target: T5, Endothelin-1 receptor (Homo sapiens, UniProt P25101)
T5 sequence (P25101 whole entry): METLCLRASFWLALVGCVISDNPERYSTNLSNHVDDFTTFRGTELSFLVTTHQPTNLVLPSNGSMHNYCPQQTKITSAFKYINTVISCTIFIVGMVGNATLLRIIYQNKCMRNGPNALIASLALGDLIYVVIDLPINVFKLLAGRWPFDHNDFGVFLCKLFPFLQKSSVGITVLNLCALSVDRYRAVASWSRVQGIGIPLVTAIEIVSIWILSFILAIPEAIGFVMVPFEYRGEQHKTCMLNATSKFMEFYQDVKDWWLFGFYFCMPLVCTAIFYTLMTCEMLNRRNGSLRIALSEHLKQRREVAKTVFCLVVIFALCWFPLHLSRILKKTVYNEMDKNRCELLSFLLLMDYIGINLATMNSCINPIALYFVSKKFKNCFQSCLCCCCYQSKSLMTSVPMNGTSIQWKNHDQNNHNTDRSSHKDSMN

[9] = molecular target: Acetylcholinesterase (Homo sapiens, UniProt P22303); type: functional
[10] = molecular target: Voltage-dependent L-type calcium channel subunit alpha-1C (Rattus norvegicus, UniProt P22002); type: functional
[11] = molecular target: Gamma-aminobutyric acid receptor subunit alpha-1 (Rattus norvegicus, UniProt P62813)
[12] = molecular target: Prothrombin (Homo sapiens, UniProt P00734); type: functional
[13] = molecular target: T4, Alpha-1A adrenergic receptor; type: functional, cell-based; remark: listed apart in the source
[14] = molecular target: T6, 5-hydroxytryptamine receptor 2B (Homo sapiens, UniProt P41595); type: functional, cell-based
[15] = molecular target: T6, 5-hydroxytryptamine receptor 2B; type: functional, cell-based; remark: listed apart in the source
Also: assay procedure not described here.

Chain of Gamma-aminobutyric acid receptor subunit alpha-1 (P62813 whole entry): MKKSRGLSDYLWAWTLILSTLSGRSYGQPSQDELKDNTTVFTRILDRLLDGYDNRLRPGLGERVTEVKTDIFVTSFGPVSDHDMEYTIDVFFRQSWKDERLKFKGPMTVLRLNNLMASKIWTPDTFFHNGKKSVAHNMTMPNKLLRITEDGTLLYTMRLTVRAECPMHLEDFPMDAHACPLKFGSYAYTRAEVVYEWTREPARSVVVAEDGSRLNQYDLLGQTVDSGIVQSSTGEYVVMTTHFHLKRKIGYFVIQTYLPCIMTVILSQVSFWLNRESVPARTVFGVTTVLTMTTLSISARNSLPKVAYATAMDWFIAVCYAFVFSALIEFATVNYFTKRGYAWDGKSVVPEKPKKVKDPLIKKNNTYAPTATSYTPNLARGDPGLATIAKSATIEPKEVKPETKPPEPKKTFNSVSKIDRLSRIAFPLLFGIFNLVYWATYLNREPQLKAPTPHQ
Chain of Acetylcholinesterase (P22303 whole entry): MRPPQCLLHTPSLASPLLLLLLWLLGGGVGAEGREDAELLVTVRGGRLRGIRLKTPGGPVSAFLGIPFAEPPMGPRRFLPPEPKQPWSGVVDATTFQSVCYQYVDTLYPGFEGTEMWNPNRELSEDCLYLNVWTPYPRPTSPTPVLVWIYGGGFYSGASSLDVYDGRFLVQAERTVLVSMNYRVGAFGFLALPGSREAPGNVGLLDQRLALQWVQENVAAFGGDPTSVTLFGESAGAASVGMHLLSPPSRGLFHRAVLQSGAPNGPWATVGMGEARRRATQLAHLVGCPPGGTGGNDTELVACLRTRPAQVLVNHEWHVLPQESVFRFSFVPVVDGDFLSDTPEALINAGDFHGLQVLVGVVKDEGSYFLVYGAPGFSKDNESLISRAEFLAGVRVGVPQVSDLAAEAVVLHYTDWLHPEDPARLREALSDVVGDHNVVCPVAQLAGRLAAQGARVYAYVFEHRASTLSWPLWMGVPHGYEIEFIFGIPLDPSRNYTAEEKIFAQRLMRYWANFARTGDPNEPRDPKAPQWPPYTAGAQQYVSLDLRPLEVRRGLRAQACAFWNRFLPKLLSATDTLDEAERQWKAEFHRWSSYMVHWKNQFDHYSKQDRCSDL
Chain of Kappa-type opioid receptor (P41145 whole entry): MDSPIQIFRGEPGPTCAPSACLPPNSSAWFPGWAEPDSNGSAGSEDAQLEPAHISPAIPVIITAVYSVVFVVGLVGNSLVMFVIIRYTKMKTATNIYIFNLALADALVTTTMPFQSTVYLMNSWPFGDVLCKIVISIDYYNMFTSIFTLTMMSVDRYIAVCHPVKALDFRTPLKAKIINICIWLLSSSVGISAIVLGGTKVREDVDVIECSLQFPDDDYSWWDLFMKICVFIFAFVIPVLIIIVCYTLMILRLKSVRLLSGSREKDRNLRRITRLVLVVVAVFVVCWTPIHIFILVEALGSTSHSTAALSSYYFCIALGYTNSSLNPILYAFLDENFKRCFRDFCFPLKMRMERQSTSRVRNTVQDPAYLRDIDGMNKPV
Chain of Mu-type opioid receptor (P35372 whole entry): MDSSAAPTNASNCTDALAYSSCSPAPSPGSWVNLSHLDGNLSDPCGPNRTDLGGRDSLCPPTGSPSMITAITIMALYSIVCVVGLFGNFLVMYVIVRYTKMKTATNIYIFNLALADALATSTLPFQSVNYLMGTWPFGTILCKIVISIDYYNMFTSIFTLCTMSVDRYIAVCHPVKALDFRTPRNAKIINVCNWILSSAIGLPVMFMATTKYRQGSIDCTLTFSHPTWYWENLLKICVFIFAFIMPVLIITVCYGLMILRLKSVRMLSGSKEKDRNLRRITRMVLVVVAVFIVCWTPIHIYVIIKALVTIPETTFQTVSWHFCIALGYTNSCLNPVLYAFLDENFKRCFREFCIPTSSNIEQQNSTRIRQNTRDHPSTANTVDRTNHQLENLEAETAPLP
T6 sequence (P41595 whole entry): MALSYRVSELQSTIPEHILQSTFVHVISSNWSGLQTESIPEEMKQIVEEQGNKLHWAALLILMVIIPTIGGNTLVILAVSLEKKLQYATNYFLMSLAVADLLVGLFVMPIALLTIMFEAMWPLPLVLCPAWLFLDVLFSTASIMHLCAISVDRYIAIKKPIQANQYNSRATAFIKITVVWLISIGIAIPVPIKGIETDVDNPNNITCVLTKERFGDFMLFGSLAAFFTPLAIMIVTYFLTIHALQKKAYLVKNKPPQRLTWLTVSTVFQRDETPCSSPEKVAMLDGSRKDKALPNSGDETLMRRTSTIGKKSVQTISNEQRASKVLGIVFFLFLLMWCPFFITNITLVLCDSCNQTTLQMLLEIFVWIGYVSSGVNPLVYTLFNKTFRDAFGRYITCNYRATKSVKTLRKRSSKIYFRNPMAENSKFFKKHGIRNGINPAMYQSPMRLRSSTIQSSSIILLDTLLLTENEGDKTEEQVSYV
Chain of Voltage-dependent L-type calcium channel subunit alpha-1C (P22002 whole entry): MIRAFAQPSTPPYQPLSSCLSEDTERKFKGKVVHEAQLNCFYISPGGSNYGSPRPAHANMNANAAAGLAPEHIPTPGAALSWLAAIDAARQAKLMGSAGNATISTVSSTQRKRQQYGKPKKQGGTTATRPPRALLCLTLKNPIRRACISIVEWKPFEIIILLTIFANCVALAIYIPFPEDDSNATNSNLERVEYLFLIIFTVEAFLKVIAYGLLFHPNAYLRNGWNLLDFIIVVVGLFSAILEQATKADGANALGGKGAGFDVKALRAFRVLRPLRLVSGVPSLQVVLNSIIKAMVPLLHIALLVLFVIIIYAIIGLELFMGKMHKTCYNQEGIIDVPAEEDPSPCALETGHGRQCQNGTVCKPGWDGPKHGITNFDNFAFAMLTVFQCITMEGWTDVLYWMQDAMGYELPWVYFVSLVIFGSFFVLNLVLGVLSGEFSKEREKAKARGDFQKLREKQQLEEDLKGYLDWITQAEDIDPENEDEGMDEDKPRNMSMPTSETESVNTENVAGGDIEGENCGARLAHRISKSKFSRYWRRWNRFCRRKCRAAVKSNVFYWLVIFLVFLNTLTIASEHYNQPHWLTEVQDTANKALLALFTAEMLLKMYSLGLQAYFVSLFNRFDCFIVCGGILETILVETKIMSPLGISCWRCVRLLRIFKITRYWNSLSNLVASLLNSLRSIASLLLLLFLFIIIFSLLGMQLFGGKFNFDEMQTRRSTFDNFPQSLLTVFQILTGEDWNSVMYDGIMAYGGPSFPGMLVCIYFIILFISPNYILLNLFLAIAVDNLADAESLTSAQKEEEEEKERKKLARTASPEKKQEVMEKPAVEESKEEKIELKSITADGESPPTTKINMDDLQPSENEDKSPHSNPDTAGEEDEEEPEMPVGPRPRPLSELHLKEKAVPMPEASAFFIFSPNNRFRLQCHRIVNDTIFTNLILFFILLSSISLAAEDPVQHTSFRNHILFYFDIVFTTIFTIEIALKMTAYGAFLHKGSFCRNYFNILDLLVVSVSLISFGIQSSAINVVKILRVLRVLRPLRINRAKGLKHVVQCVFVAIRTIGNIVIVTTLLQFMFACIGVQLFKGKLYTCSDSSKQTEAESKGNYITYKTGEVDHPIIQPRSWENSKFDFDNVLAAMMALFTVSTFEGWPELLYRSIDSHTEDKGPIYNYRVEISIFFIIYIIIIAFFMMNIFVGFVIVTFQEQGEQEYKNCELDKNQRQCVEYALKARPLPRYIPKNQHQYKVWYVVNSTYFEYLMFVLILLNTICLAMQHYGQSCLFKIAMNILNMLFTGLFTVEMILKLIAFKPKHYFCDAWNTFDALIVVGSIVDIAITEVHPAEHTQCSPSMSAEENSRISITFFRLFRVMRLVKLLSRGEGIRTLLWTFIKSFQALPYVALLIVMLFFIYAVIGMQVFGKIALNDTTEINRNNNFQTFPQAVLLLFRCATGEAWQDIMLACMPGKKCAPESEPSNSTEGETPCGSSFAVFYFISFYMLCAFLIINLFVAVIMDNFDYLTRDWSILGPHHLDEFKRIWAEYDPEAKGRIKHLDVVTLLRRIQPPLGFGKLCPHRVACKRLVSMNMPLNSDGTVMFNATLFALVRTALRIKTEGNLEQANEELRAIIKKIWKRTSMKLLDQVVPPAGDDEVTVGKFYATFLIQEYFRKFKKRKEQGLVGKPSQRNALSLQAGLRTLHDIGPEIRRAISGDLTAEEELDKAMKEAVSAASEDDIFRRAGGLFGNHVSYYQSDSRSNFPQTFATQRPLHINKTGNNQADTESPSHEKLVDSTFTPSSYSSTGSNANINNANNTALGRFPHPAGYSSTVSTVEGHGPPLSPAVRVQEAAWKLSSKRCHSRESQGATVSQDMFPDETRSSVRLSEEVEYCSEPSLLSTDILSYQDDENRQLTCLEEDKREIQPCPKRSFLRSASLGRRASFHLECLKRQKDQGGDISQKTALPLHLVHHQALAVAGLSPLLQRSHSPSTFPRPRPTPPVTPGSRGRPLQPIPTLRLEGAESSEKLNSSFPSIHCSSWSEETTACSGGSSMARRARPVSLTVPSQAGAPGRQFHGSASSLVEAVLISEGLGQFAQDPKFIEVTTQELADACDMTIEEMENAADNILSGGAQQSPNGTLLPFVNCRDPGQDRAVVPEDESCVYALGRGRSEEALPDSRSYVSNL
Chain of Cannabinoid receptor 1 (P21554 whole entry): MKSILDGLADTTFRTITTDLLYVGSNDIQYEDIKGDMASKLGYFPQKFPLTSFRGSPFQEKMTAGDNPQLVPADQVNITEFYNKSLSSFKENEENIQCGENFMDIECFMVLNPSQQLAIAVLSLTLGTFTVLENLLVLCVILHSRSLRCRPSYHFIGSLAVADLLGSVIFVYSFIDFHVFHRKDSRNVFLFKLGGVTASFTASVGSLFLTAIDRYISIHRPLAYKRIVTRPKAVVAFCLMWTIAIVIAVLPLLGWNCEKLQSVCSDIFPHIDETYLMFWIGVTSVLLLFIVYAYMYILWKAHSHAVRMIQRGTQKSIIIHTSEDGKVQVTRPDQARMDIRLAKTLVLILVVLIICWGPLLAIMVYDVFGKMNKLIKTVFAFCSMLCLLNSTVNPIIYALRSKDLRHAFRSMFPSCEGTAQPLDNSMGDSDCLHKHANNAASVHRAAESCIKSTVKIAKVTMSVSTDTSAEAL

SMILES | AC50 [1] | AC50 [2] | AC50 [3] | AC50 [4] | AC50 [5] | AC50 [6] | AC50 [7] | AC50 [8] | AC50 [9] | AC50 [10] | AC50 [11] | AC50 [12] | AC50 [13] | AC50 [14] | AC50 [15]
CN1CCN(C2=Nc3ccccc3Oc3ccc(Cl)cc32)CC1 [LOXAPINE] | > 30 µM | > 30 µM | > 30 µM | 8.61 µM | > 30 µM | 8.24 µM | > 10 µM | > 30 µM | > 30 µM | > 10 µM | > 10 µM | > 30 µM | 0.0734 µM | – | –
CCC(=O)O[C@]1(C(=O)SCF)[C@H](C)C[C@H]2[C@@H]3C[C@H](F)C4=CC(=O)C=C[C@]4(C)[C@@]3(F)[C@@H](O)C[C@@]21C [FLUTICASONE PROPIONATE] | > 30 µM | > 30 µM | > 30 µM | > 30 µM | > 30 µM | > 30 µM | > 30 µM | > 30 µM | > 30 µM | > 30 µM | > 30 µM | > 30 µM | > 30 µM | > 30 µM | > 30 µM
